Source: paper PMC3288109, “γ-Aminobutyric Acid Transporter 2 Mediates the Hepatic Uptake of Guanidinoacetate, the Creatine Biosynthetic Precursor, in Rats” (PLoS ONE, 2012)

T1: GAT2 (γ-aminobutyric acid transporter 2, SLC6A13) (Rattus norvegicus, UniProt P31646)
T1 sequence (P31646 1-602): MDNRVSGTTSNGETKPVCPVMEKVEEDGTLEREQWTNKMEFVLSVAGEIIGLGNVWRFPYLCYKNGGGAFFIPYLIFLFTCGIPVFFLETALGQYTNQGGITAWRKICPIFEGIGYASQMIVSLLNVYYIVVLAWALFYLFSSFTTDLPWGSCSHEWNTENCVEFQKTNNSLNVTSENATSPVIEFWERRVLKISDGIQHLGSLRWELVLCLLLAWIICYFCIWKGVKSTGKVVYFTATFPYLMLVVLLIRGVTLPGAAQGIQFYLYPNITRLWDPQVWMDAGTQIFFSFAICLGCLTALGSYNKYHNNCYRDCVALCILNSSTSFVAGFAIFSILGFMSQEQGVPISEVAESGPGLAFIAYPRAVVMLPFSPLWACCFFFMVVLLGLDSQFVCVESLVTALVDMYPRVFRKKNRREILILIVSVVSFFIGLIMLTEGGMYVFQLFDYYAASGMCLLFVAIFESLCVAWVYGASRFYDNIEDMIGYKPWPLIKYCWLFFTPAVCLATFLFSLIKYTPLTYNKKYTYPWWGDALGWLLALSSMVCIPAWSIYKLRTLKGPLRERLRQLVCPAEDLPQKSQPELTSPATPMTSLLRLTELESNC


What was measured:
[1] = target: T1, GAT2 (γ-aminobutyric acid transporter 2, SLC6A13); test: cell-based; design: rat GAT2 open reading frame cRNA expressed in Xenopus laevis oocytes; species or system Xenopus laevis oocytes; Inhibition of [14C]GAA (45 uM) uptake by rat GAT2 cRNA-injected oocytes, 20 C, scintillation counting; settings: Oocyte; [14C]GAA 45 uM, 1 h, 20 C; read-out: % of control / 100±7
Protocol: Using T7 RNA polymerase, capped cRNA was transcribed from NotI-linearized pGEM-HEN containing an open reading frame of rat GAT2 cDNA. Defolliculated oocytes were injected with 23 nL water or the capped cRNA (30–50 ng) and incubated at 18°C in freshly prepared standard oocyte saline solution containing 100 mM NaCl, 2 mM KCl, 1.8 mM CaCl2, 1 mM MgCl2, and 5 mM HEPES, 25 µg/mL gentamycin, 2.5 mM pyruvate and 1% bovine serum albumin, pH 7.5. The standard oocyte saline solution used to incubate the oocytes was replaced with fresh solution daily. Experiments were performed after incubation for 4 to 6 days. For the uptake study by Xenopus laevis oocytes, oocytes were preincubated with 500 µL ND96 solution containing (in mM) 96 NaCl, 2 KCl, 1.8 CaCl2, 1 MgCl2, and 5 HEPES for 20 min at 20°C before the uptake experiment. The uptake experiment was initiated by replacing the ND96 solution with 200 µL of the same solution containing [^14C]GAA (45 µM) […] [^14C]creatine (45 µM). After incubation for a designated time at 20°C, the uptake was terminated by addition of ice-cold ND96 solution. […] The inhibitory effects of GAT substrates and inhibitors on the [^14C]GAA uptake were further examined (Figure 3B and Table 3).

[2] = target: T1, GAT2 (γ-aminobutyric acid transporter 2, SLC6A13); assay type: cell-based; settings: xenopus oocytes
[3] = system: T2, freshly isolated rat hepatocytes; test: cells; design: species or system primary rat hepatocytes; Inhibition of [14C]GAA (18 uM) uptake by freshly isolated rat hepatocytes, 37 C, scintillation counting; settings: Hepatocyte, 0.05 h, [14C]GAA 18 uM, 3 min, 37 C, read-out: % of control remaining
T2 construct: Wistar primary hepatocytes, collagenase perfusion
Description: Rat hepatocytes were isolated by collagenase perfusion and Percoll isodensity centrifugation as described previously. The hepatocytes were resuspended in Tyrode buffer containing (in mM) 137 NaCl, 2.7 KCl, 1.05 MgCl2, 1.8 CaCl2, 12 NaHCO3, 0.4 NaH2PO4, and 5.6 D-glucose. Uptake of [^14C]GAA or [^14C]creatine by the freshly isolated hepatocytes was examined according to the methods described previously. In brief, after centrifugation and aspiration of the buffer, uptake was initiated by applying 100 µL Tyrode buffer containing [^14C]GAA or [^14C]creatine at 37°C in the presence or absence of inhibitors. Na^+-free Tyrode buffer was prepared by replacement of NaCl, NaH2PO4 and NaHCO3 with equimolar N-methyl-D-glucamine, KH2PO4, and KHCO3, respectively. Cl^−-free uptake buffer was prepared by replacement with equimolar gluconate. After a predetermined period, uptake was terminated by centrifugation of the solution. The cells were then solubilized in 1 N NaOH and subsequently neutralized with 1 N HCl. The cell-associated radioactivity and protein content were assayed by [compound left out] scintillation spectrometry and detergent compatible protein assay (a DC protein assay kit, Bio-Rad, Hercules, CA) with bovine serum albumin as a standard. […] In contrast, there was no time-dependent increase in [^14C]creatine uptake by hepatocytes (Figure 2A). […] The [^14C]GAA uptake took place in a concentration-dependent manner and consisted of a single saturable component (Figure 2B). […] In contrast, creatinine, betaine, guanidinosuccinic acid, L-arginine, L-alanine, and L-serine had much weaker effects. GABA, taurine, and creatine inhibited the [^14C]GAA uptake in a concentration-dependent manner with an IC50 value of 8.81±1.33 µM, 1.13±0.30 mM, and 1.42±0.53 mM, respectively (Figure 2C–E). […] Among the GAT subtypes, GAT2 is predominantly expressed in rat liver. […] [^14C]GAA uptake was reduced by 46.4% in GAT2-silenced hepatocytes corresponding to the reduction in GAT2 protein (Figure 2F).

[4] = substrate: N=C(N)NCC(=O)O; test: cells, lysate or membranes; assay type: cell-based, Rattus norvegicus; settings: Na+ and Cl-

Molecule	remaining activity at 5000 µM [1]	[14C]creatine uptake by GAT2-expressing oocytes; also 57.3% of control [14C]GAA [2]	activity at 2000 µM [3]	Km [4]
NCC(=O)O [Glycine]	–	–	54.4 ± 11.2%	–
C[N+](C)(C)CC(=O)O [Betaine]	96.7 ± 7.4%	–	64.4 ± 8.7%	–
CN1CC(=O)NC1=N [Creatinine]	147 ± 18%	–	75.3 ± 8.9%	–
NC(N)=N[C@@H](CC(=O)O)C(=O)O [Guanidinosuccinic acid]	148 ± 11%	–	71.2 ± 5.1%	–
[H]/N=C(/N)NCC(=O)O [Guanidinoacetic acid]	–	–	24.1 ± 1.1%	–
N[C@@H](CO)C(=O)O [L-Serine]	–	–	83.8 ± 6.4%	–
O=C(O)C1CCCNC1 (stereo not drawn) [Nipecotic acid]	11.9 ± 1.5%	–	30.8 ± 1.2%	–
NCCC(=O)O [β-Alanine]	–	–	28.5 ± 5.5%	–
NCCS(=O)(=O)O [Taurine]	16.6 ± 4.4%	–	–	–
GAT2 (γ-aminobutyric acid transporter 2, SLC6A13) (Rattus norvegicus) (protein, rat GAT2 open reading frame cRNA expressed in Xenopus laevis oocytes) MDNRVSGTTSNGETKPVCPVMEKVEEDGTLEREQWTNKMEFVLSVAGEIIGLGNVWRFPYLCYKNGGGAFFIPYLIFLFTCGIPVFFLETALGQYTNQGGITAWRKICPIFEGIGYASQMIVSLLNVYYIVVLAWALFYLFSSFTTDLPWGSCSHEWNTENCVEFQKTNNSLNVTSENATSPVIEFWERRVLKISDGIQHLGSLRWELVLCLLLAWIICYFCIWKGVKSTGKVVYFTATFPYLMLVVLLIRGVTLPGAAQGIQFYLYPNITRLWDPQVWMDAGTQIFFSFAICLGCLTALGSYNKYHNNCYRDCVALCILNSSTSFVAGFAIFSILGFMSQEQGVPISEVAESGPGLAFIAYPRAVVMLPFSPLWACCFFFMVVLLGLDSQFVCVESLVTALVDMYPRVFRKKNRREILILIVSVVSFFIGLIMLTEGGMYVFQLFDYYAASGMCLLFVAIFESLCVAWVYGASRFYDNIEDMIGYKPWPLIKYCWLFFTPAVCLATFLFSLIKYTPLTYNKKYTYPWWGDALGWLLALSSMVCIPAWSIYKLRTLKGPLRERLRQLVCPAEDLPQKSQPELTSPATPMTSLLRLTELESNC	–	–	–	78.9 µM

The next lines start with results.

remaining activity at 5000 µM [1]	[14C]creatine uptake by GAT2-expressing oocytes; also 57.3% of control [14C]GAA [2]	Molecule	activity at 2000 µM [3]	Km [4]
57.3 ± 8.3%	28 fold over water-injected oocytes	CN(CC(=O)O)C(=N)N [Creatine]	–	–
137 ± 15%	–	N=C(N)NCCC[C@H](N)C(=O)O [L-Arginine]	74.9 ± 11.1%	–
11 ± 1.2%	–	N=C(N)NCCS(=O)(=O)O [Guanidinoethansulfonic acid]	33 ± 4.4%	–
1.74 ± 0.44%	–	NCCCC(=O)O [GABA]	17.1 ± 1.6%	–
138 ± 18%	–	C[C@H](N)C(=O)O [L-Alanine]	59.6 ± 7.8%	–
0.81 ± 0.07%	–	[H]/N=C(\N)NCCC(=O)O [β-Guanidinopropionic acid]	18.9 ± 0.9%	–
2.35 ± 0.23%	–	N=C(N)NCCCC(=O)O [γ-Guanidinobutyric acid]	–	–
